Experimental data published in patent US20140011822A1, “METHODS AND MATERIALS FOR REDUCING VENOUS STENOSIS FORMATION OF AN ARTERIOVENOUS FISTULA OR GRAFT” (priority 2011, published 2014).

Key:
[1] = tested on: VEGF-A; test: RT-PCR for VEGF-A at outflow vein, simvastatin; format: in vivo, mice
Protocol: (§1) Animals were housed at 22° C. temperature, 41% relative humidity, and 12-/12-hour light/dark cycles. Animals were allowed access to water and food ad libitum. […] Sixty-eight male C57BL/6 mice (Jackson Laboratories, Bar Harbor, Me.) weighing 25-30 grams were used for the present study (FIG. 18). Chronic kidney disease was created by surgical removal of the right kidney accompanied by ligation of the arterial blood supply to the upper pole of the left kidney as described elsewhere (Misra et al., J. Vasc. Interv. Radiol., 21:1255-1261 (2010); see, also, FIG. 18A). Three weeks after nephrectomy, the animals were started on simvastatin (40 mg/kg administered i.p. three times per week) or PBS (equal amount of volume used for simvastatin i.p. controls). Simvastatin was prepared as described elsewhere (Wilson et al., Arterioscler Thromb. Vasc. Biol., 21:122-128 (2001)). A week later, an AVF was created by connecting the right carotid artery to the ipsilateral jugular vein (FIG. 18B; see, also, Misra et al., J. Vasc. Interv. Radiol., 21:1255-1261 (2010) and Yang et al., J. Vasc. Interv. Radiol., 20:946-950 (2009)). Animals were sacrificed at day 7, day 14, and day 28 following AVF placement for real time polymerase chain reaction (RT-PCR) and histomorphometric analyses (FIG. 18C). Serum BUN and creatinine were measured by removing blood from the tail vein at baseline (before nephrectomy), at AVF creation, and at the time of sacrifice. […] These animals were started on simvastatin (40 mg/kg i.p.) or PBS (equal amount of volume i.p.) every other day one week before AVF placement and then sacrificed four weeks after fistula placement for histomorphometric analysis.
The tissue was stored in RNA stabilizing reagent (Qiagen, Gaithersburg, Md.) as per the manufacturer's guidelines. To isolate the RNA, the specimens were homogenized, and total RNA was isolated using RNeasy mini kit (Qiagen) (Misra et al., J. Vasc. Interv. Radiol., 21:1255-1261 (2010); and Yang et al., J. Vasc. Interv. Radiol., 20:946-950 (2009)).
Expression for the gene of interest was determined using RT-PCR analysis as described elsewhere (Misra et al., J. Vasc. Interv. Radiol., 21:1255-1261 (2010)). Commercial PCR primers for the gene of interest were purchased from SA Biosciences (Frederick, Md.).

[2] = tested on: CTGF; test: RT-PCR for CTGF at outflow vein, simvastatin; format: in vivo, mice; conditions: day 14
Protocol: (§2) Animals were housed at 22° C. temperature, 41% relative humidity, and 12-/12-hour light/dark cycles. Animals were allowed access to water and food ad libitum. […] Sixty-eight male C57BL/6 mice (Jackson Laboratories, Bar Harbor, Me.) weighing 25-30 grams were used for the present study (FIG. 18). Chronic kidney disease was created by surgical removal of the right kidney accompanied by ligation of the arterial blood supply to the upper pole of the left kidney as described elsewhere (Misra et al., J. Vasc. Interv. Radiol., 21:1255-1261 (2010); see, also, FIG. 18A). Three weeks after nephrectomy, the animals were started on simvastatin (40 mg/kg administered i.p. three times per week) or PBS (equal amount of volume used for simvastatin i.p. controls). Simvastatin was prepared as described elsewhere (Wilson et al., Arterioscler Thromb. Vasc. Biol., 21:122-128 (2001)). […] Serum BUN and creatinine were measured by removing blood from the tail vein at baseline (before nephrectomy), at AVF creation, and at the time of sacrifice. […]
(§3) Expression for the gene of interest was determined using RT-PCR analysis as described elsewhere (Misra et al., J. Vasc. Interv. Radiol., 21:1255-1261 (2010)). […]

[3] = tested on: MMP-2; test: RT-PCR for MMP-2 in kidneys, simvastatin; format: in vivo, mice
Protocol: as §2, §3

[4] = tested on: outflow vein of arteriovenous fistula; test: Histomorphometry of outflow vein (neointima, media/adventitia, lumen area, cell density), simvastatin; format: in vivo, mice; conditions: for Average reduction of media/adventitia area / average increase of lumen vessel area / average reduction of media/adventitia cell density / average reduction of neointima area / average reduction of neointima cell density: vs control
Protocol: as §1
At euthanasia, all mice were anesthetized, and the arterio-venous fistula was carefully dissected from of the surrounding tissue. Animals were euthanized by use of CO2 asphyxiation, and the outflow veins harvested for RT-PCR or histomorphometric analyses as described elsewhere (Misra et al., Kidney Int., 68:2890-2900 (2005); Misra et al., J. Vasc. Interv. Radiol., 21:1255-1261 (2010); and Misra et al., Am. J. Physiol. Heart Circ. Physiol., 294:H2219-2230 (2008)).
(§4) Morphometric analysis was performed as described elsewhere (Misra et al., Kidney Int., 68:2890-2900 (2005); and Misra et al., Am. J. Physiol. Heart Circ. Physiol., 294:H2219-2230 (2008)). Briefly, the outflow vein was sectioned into multiple contiguous 4-μm paraffin embedded sections. Typically, 2 to 3 sections per animal for each group (simvastatin and controls) and time point (day 14 and day 28) were photographed and then quantified using KS 400 (Carl Zeiss, Inc., Thornwood, N.Y.) semiquantitative program.

[5] = tested on: α-SMA; test: α-SMA staining of outflow vein, simvastatin; format: in vivo, mice; conditions: for average reduction of α-SMA density: vs control
Protocol: Multiple serial four-micrometer sections were stained and analyzed. Cellular proliferation was determined by staining for Ki-67 on sections removed from the outflow vein for simvastatin treated vessels or control groups. Smooth muscle density (α-SMA) or proliferation index (Ki-67) was determined by staining on sections removed from the outflow vein by performing quantification at the different time points. Immunohistochemistry for Ki-67 and α-SMA was performed on paraffin-embedded sections from the outflow vein after transfection with either simvastatin or controls using the Vectastain Elite ABC system (Vector Laboratories, Burlingame, Calif., USA). The following antibodies were used: mouse monoclonal antibody Ki-67 (DAKO, Carpentaria, Calif.; 1:400) or rabbit polyclonal antibody to mouse for α-SMA (Abcam, Cambridge, Mass.; 1:400).
as §4

[6] = tested on: α-SMA; test: Confocal microscopy for α-SMA plus phalloidin in NIH 3T3 cells, simvastatin; format: cell-based
Protocol: One hundred thousand NIH 3T3 cells were treated with simvastatin (1 μM, 5 μM, or 10 μM) or controls and made hypoxic for 24 hours as described elsewhere (Misra et al., J. Vasc. Interv. Radiol., 21:896-902 (2010)).

For CCC(C)(C)C(=O)O[C@H]1C[C@@H](C)C=C2C=C[C@H](C)[C@H](CC[C@@H]3C[C@@H](O)CC(=O)O3)[C@H]21 [simvastatin], the “mean gene expression of VEGF-A” value ([1]; day 14) was 0.51±0.1, the “Average reduction of VEGF-A gene expression” value ([1]; day 14, vs control) was 49% and the “mean gene expression of CTGF” value [2] was 0.29±0.05. The “average reduction of CTGF gene expression” value ([2]; vs control) was 45%, the “expression of MMP-2” value ([3]; day 28) was 0.78±0.09 and the “Average reduction of MMP-2 expression” value ([3]; day 28, vs control) was 42%. For the same compound, the “average area of the media/adventitia” value ([4]; day 14) was 147603±4443 μm^2, the “average area of the neointima” value ([4]; day 14) was 61864±12401 μm^2 and the “average cell density of the media/adventitia” value ([4]; day 14) was 3.27±0.33. For the same compound, the “average cell density of the neointima” value ([4]; day 14) was 4.6±0.2, the “average lumen vessel area” value ([4]; day 14) was 95051±21583 and the “Average reduction of media/adventitia area” value ([4]; day 14) was 43%. The “average increase of lumen vessel area” value ([4]; day 14) was 150%, the “average reduction of media/adventitia cell density” value ([4]; day 14) was 37% and the “average reduction of neointima area” value ([4]; day 14) was 56%. For the same compound, the “average reduction of neointima cell density” value ([4]; day 14) was 65%, the “average area of the neointima” value ([4]; day 28) was 85574±1652 and the “average cell density of the media/adventitia” value ([4]; day 28) was 2.85±0.10. The “average cell density of the neointima” value ([4]; day 28) was 4.2±0.2, the “average lumen vessel area” value ([4]; day 28) was 162607±34685 and the “average increase of lumen vessel area” value ([4]; day 28) was 343%. For the same compound, the “average reduction of media/adventitia cell density” value ([4]; day 28) was 35%, the “average reduction of neointima area” value ([4]; day 28) was 45% and the “average reduction of neointima cell density” value ([4]; day 28) was 70%. For the same compound, the “Average reduction of media/adventitia area” value ([4]; day 28, not statistically significant (P=0.03)) was 32%, the “average cell density of the media/adventitia” value ([4]; day 28 normal) was 1.67±0.1 and the “average cell density of the neointima” value ([4]; day 28 normal) was 2.63±0.11. For the same compound, the “average reduction of media/adventitia cell density” value ([4]; day 28 normal) was 71%, the “average reduction of neointima cell density” value ([4]; day 28 normal) was 61% and the “Average reduction of media/adventitia area” value ([4]; day 28 normal, not statistically significant (P=0.03)) was 29%. The “average α-SMA density” value ([5]; day 14) was 24±1.2, the “average reduction of α-SMA density” value ([5]; day 14) was 46% and the “average α-SMA density” value ([5]; day 28) was 8.4±1.6. The “average reduction of α-SMA density” value ([5]; day 28) was 87%, the “average α-SMA density” value ([5]; day 28 normal) was 28.4±1.6 and the “average reduction of α-SMA density” value ([5]; day 28 normal) was 32%. For the same compound, the “average reduction in α-SMA plus phalloidin staining” value ([6]; 5 μM, 24 hours of hypoxia) was 52%, the “average reduction in α-SMA plus phalloidin staining” value ([6]; 5 μM, 24 hours of normoxia) was 62% and the “average reduction in α-SMA plus phalloidin staining” value ([6]; 10 μM, 24 hours of hypoxia) was 82%. For the same compound, the “average reduction in α-SMA plus phalloidin staining” value ([6]; 10 μM, 24 hours of normoxia) was 94%.
